These compounds were tested against T1, KRAS G12C 1-169, his-tagged protein, GDP-loaded (Homo sapiens, UniProt P01116, G12C) (assay: Biochemical assay: covalent binding to KRAS G12C measured by mass spectrometry). Conditions: covalently bind to KRAS G12C, after a thirty minute incubation period.
T1 construct: KRAS G12C 1-169, his-tagged protein, GDP-loaded
Description: Test compounds were prepared as 10 mM stock solutions in DMSO (Fisher cat #BP-231-100). KRAS G12C 1-169, his-tagged protein, GDP-loaded was diluted to 0.5 μM in buffer (20 mM Hepes, 150 mM NaCl, 1 mM MgCl2). Compounds were tested for activity as follows:
Compounds were diluted to 50× final test concentration in DMSO in 96-well storage plates. Compound stock solutions were vortexed before use and observed carefully for any sign of precipitation. Dilutions were as follow: • For 100 μM final compound concentration, compounds were diluted to 5000 μM (5 μL 10 mM compound stock+5 μL DMSO and mixed well by pipetting. • For 30 μM final compound concentration, compounds were diluted to 1500 μM (3 μL 10 mM compound stock+17 μL DMSO) and mixed well by pipetting. • For 10 μM final compound concentration, compounds were diluted to 500 μM (2 μL 10 mM compound stock+38 μL DMSO) and mixed well by pipetting. 49 μL of the stock protein solution was added to each well of a 96-well PCR plate (Fisher cat #1423027). 1 μl of the diluted 50× compounds were added to appropriate wells in the PCR plate using 12-channel pipettor. Reactions were mixed carefully and thoroughly by pipetting up/down with a 200 μL multi-channel pipettor. The plate was sealed well with aluminum plate seal, and stored in drawer at room temperature for 10 minutes, 30 minutes, 2 hours or 24 hours. 5 μL of 2% formic acid (Fisher cat #A117) in de-ionized H2O was then added to each well followed by mixing with a pipette. The plate was then resealed with aluminum seal and stored on dry ice until analyzed as described below.
The above described assays were analyzed by mass spectrometry according to one of the following two procedures:
The MS instrument is set to positive polarity, 2 GHz resolution, and low mass (1700) mode and allowed to equilibrate for 30 minutes. The instrument is then calibrated, switched to acquisition mode and the appropriate method loaded.
After another 30 minute equilibration time, a blank batch (i.e., buffer) is run to ensure equipment is operating properly. The samples are thawed at 37° C. for 10 minutes, briefly centrifuged, and transfer to the bench top. Wells A1 and H12 are spiked with 1 μL 500 μM internal standard peptide, and the plates centrifuged at 2000×g for 5 minutes. The method is then run and masses of each individual well recorded.
The masses (for which integration data is desired) for each well are pasted into the platemap and exported from the analysis. Masses for the internal standards are exported as well. The data at 50 ppm is extracted for the +19 charge state, and identity of well A1 is assigned using the internal standard spike and integrated. Peak data is exported as a TOF list and the above steps are repeated individually, for the +20, 21, 22, 23, 24, and 25 charge states.
The masses and peak intensities of KRAS G12C protein species were measured using a Dionex RSLCnano system (Thermo Scientific) connected to a Q Exactive Plus mass spectrometer (Thermo Scientific).
[…] of sample was each loaded onto a Aeris™ […] WIDEPORE C4 200 Å, LC Column 50×2.1 mm column maintained at 40° C. at a flow rate of 600 μL/min with […] (0.1% formic acid in acetonitrile). The liquid chromatography conditions were 20% solvent B for 1 minute, 20% to 60% solvent B for 1.5 minutes, 60% to 90% solvent for 0.5 minute, 90% solvent B for 0.2 minute, 90% to 20% solvent B for 0.2 minute, and then equilibrated for 1.6 minute before the following sample injection. The flow rate was maintained at 600 μL/min throughout the sample analysis.
The mass spectrometer was operated in profile mode at a resolution of 17500, 5 microscans, using 50 msec max injection time and an AGC target of 1×10^6, and a full mass range from 800-1850 m/z was recorded. The HCD trapping gas was optimized for maximum sensitivity for intact proteins. […]
For `C=CC(=O)N1CC(Nc2ncnc3c(-c4c(C)ccc5[nH]ncc45)cccc23)C1` [Compound 1, 1-(3-((8-(5-methyl-1H-indazol-4-yl)quinazolin-4-yl)amino)azetidin-1-yl)prop-2-en-1-one], the Binding % was “+ (+ indicates binding activity up to 5%)”. In the case of `C=CC(=O)N1CC(Nc2ncnc3c(-c4cc(O)cc5ccccc45)cccc23)C1` [Compound 2, 1-(3-((8-(3-hydroxynaphthalen-1-yl)quinazolin-4-yl)amino)azetidin-1-yl)prop-2-en-1-one], the Binding % is reported as “++ (++ indicates binding activity of 5% or more)”. For `C=CC(=O)N1CC(Nc2cnnc3c(-c4cc(O)cc5ccccc45)cccc23)C1` [Compound 18, 1-(3-((8-(3-hydroxynaphthalen-1-yl)cinnolin-4-yl)amino)azetidin-1-yl)prop-2-en-1-one], the Binding % was “++ (++ indicates binding activity of 5% or more)”. In the case of `C=CC(=O)N1CCN(c2cnnc3c(-c4c(C)ccc5[nH]ncc45)cccc23)CC1` [Compound 19, 1-(4-(8-(5-methyl-1H-indazol-4-yl)cinnolin-4-yl)piperazin-1-yl)prop-2-en-1-one], the Binding % is reported as “+ (+ indicates binding activity up to 5%)”. For `C=CC(=O)N1CCN(c2cnnc3c(-c4cc(O)cc5ccccc45)cccc23)CC1` [Compound 20, 1-(4-(8-(3-hydroxynaphthalen-1-yl)cinnolin-4-yl)piperazin-1-yl)prop-2-en-1-one], the Binding % was “++ (++ indicates binding activity of 5% or more)”. For `C=CC(=O)N1CCCC(Nc2cnnc3c(-c4c(C)ccc5[nH]ncc45)cccc23)C1` (centres unmarked) [Compound 21, 1-(3-((8-(5-methyl-1H-indazol-4-yl)cinnolin-4-yl)amino)piperidin-1-yl)prop-2-en-1-one], the Binding % was “+ (+ indicates binding activity up to 5%)”. For `C=CC(=O)N1CCC(Nc2cnnc3c(-c4cc(O)cc5ccccc45)cccc23)C1` (centres unmarked) [Compound 22], the Binding % was “+ (+ indicates binding activity up to 5%)”. `C=CC(=O)N1CCC(Nc2cnnc3c(-c4c(C)ccc5[nH]ncc45)cccc23)C1` (centres unmarked) [Compound 23, 1-(3-((8-(5-methyl-1H-indazol-4-yl)cinnolin-4-yl)amino)pyrrolidin-1-yl)prop-2-en-1-one] was tested, and the Binding % was “+ (+ indicates binding activity up to 5%)”. In the case of `C=CC(=O)N1CC(Nc2cncc3c(-c4cc(O)cc5ccccc45)ccnc23)C1` [Compound 24, 1-(3-((4-(3-hydroxynaphthalen-1-yl)-1,6-naphthyridin-8-yl)amino)azetidin-1-yl)prop-2-en-1-one], the Binding % is reported as “++ (++ indicates binding activity of 5% or more)”. For `C=CC(=O)N1CC(Nc2cncc3c(-c4cc(O)cc5ccccc45)cccc23)C1` [Compound 25, 1-(3-((8-(3-hydroxynaphthalen-1-yl)isoquinolin-4-yl)amino)azetidin-1-yl)prop-2-en-1-one], the Binding % was “++ (++ indicates binding activity of 5% or more)”. In the case of `C=CC(=O)N1CC(Nc2cncc3c(-c4c(C)ccc5[nH]ncc45)cccc23)C1` [Compound 26, 1-(3-((8-(5-methyl-1H-indazol-4-yl)isoquinolin-4-yl)amino)azetidin-1-yl)prop-2-en-1-one], the Binding % is reported as “++ (++ indicates binding activity of 5% or more)”.

From patent US11274093B2, “Fused bicyclic benzoheteroaromatic compounds and methods of use thereof” (Araxes Pharma LLC, priority 2017, dated 2022)
